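Where inhibition never reached the appropriate level, the endpoint shown equals the highest concentration tested. Otherwise, values were interpolated linearly from a five-concentration, 48-hour dose response in 96-well plates. The concentration for full growth arrest is given as TGI.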
Key:
Assay in all cases: NCI tumour cell line growth inhibition, 48 h
[1] = test system: SK-MEL-5 melanoma
[2] = test system: HCT-15 colon
[3] = test system: SF-268 CNS
[4] = test system: UACC-62 melanoma
[5] = test system: LOX IMVI melanoma
[6] = test system: M14 melanoma
[7] = test system: HOP-62 NSCLC
[8] = test system: SF-295 CNS
[9] = test system: OVCAR-3 ovarian
[10] = test system: ACHN renal
[11] = test system: A498 renal
[12] = test system: SNB-19 CNS
[13] = test system: SF-539 CNS
[14] = test system: OVCAR-8 ovarian
[15] = test system: OVCAR-5 ovarian
[16] = test system: HT29 colon
[17] = test system: 786-0 renal
[18] = test system: SR leukemia
[19] = test system: K-562 leukemia
[20] = test system: DLD-1 colon
[21] = test system: SNB-78 CNS
[22] = test system: LXFL 529 NSCLC
[23] = test system: HCC-2998 colon
[24] = test system: RPMI-8226 leukemia
[25] = test system: MOLT-4 leukemia
[26] = test system: A549 NSCLC
[27] = test system: M19-MEL melanoma
[28] = test system: NCI-H23 lung
[29] = test system: UACC-257 melanoma
[30] = test system: KM12 colon
[31] = test system: HL-60(TB) leukemia
[32] = test system: SK-MEL-2 melanoma
[33] = test system: COLO 205 colon
[34] = test system: UO-31 renal
[35] = test system: SN12C renal
[36] = test system: EKVX NSCLC
[37] = test system: KM20L2 colon
[38] = test system: HCT-116 colon
[39] = test system: CAKI-1 renal
[40] = test system: IGROV1 ovarian
[41] = test system: OVCAR-4 ovarian
[42] = test system: NCI-H226 lung
[43] = test system: SW-620 colon
[44] = test system: MALME-3M melanoma
[45] = test system: DMS 114 small cell lung
[46] = test system: NCI-H522 lung
[47] = test system: CCRF-CEM leukemia
[48] = test system: NCI-H460 lung
[49] = test system: U251 CNS
[50] = test system: SK-OV-3 ovarian
[51] = test system: DU-145 prostate
[52] = test system: TK-10 renal
[53] = test system: T-47D breast
[54] = test system: HS 578T breast
[55] = test system: HOP-92 NSCLC
[56] = test system: RXF 393 renal
[57] = test system: PC-3 prostate
[58] = test system: MCF7 breast
[59] = test system: NCI/ADR-RES ovarian
[60] = test system: MDA-N
[61] = test system: SNB-75 CNS
[62] = test system: MDA-MB-435
[63] = test system: BT-549 breast
[64] = test system: SK-MEL-28 melanoma
[65] = test system: MDA-MB-231 breast

CCCCC#COS(=O)(=O)c1ccc(C)cc1 was tested. Which TGI [1] did it give?
Its TGI is greater than 100 µM.

What about the TGI [2] of the same compound?
Its TGI is greater than 100 µM.

What about the TGI [3] of the same compound?
The TGI was greater than 100 µM.

And the TGI [4]?
Its TGI is greater than 100 µM.

What about the TGI [5] of the same compound?
The TGI was greater than 100 µM.

What about the TGI [6] of the same compound?
The TGI was greater than 100 µM.

What about the TGI [7] of the same compound?
The TGI was greater than 100 µM.

And the TGI [8]?
Its TGI is greater than 100 µM.

What about the TGI [9] of the same compound?
Its TGI is greater than 100 µM.

And the TGI [10]?
The TGI was greater than 100 µM.

What about the TGI [11] of the same compound?
Its TGI is greater than 100 µM.

What about the TGI [12] of the same compound?
The TGI was greater than 100 µM.

And the TGI [13]?
Its TGI is greater than 100 µM.

What about the TGI [14] of the same compound?
Its TGI is greater than 100 µM.

And the TGI [15]?
Its TGI is greater than 100 µM.

And the TGI [16]?
The TGI was greater than 100 µM.

What about the TGI [17] of the same compound?
The TGI was greater than 100 µM.

And the TGI [18]?
The TGI was greater than 100 µM.

What about the TGI [19] of the same compound?
Its TGI is greater than 100 µM.

And the TGI [20]?
The TGI was greater than 100 µM.

What about the TGI [21] of the same compound?
The TGI was greater than 100 µM.

And the TGI [22]?
The TGI was greater than 100 µM.

What about the TGI [23] of the same compound?
The TGI was greater than 100 µM.

And the TGI [24]?
The TGI was greater than 100 µM.

What about the TGI [25] of the same compound?
The TGI was greater than 100 µM.

What about the TGI [26] of the same compound?
The TGI was greater than 100 µM.

What about the TGI [27] of the same compound?
Its TGI is greater than 100 µM.

And the TGI [28]?
Its TGI is greater than 100 µM.

And the TGI [29]?
The TGI was greater than 100 µM.

What about the TGI [30] of the same compound?
The TGI was greater than 100 µM.

And the TGI [31]?
Its TGI is greater than 100 µM.

What about the TGI [32] of the same compound?
Its TGI is greater than 100 µM.

What about the TGI [33] of the same compound?
The TGI was greater than 100 µM.

And the TGI [34]?
Its TGI is greater than 100 µM.

What about the TGI [35] of the same compound?
Its TGI is greater than 100 µM.

What about the TGI [36] of the same compound?
The TGI was greater than 100 µM.

What about the TGI [37] of the same compound?
Its TGI is greater than 100 µM.

And the TGI [38]?
Its TGI is greater than 100 µM.

And the TGI [39]?
The TGI was greater than 100 µM.

And the TGI [40]?
Its TGI is greater than 100 µM.

And the TGI [41]?
Its TGI is greater than 100 µM.

What about the TGI [42] of the same compound?
The TGI was 84.9 µM.

And the TGI [43]?
The TGI was greater than 100 µM.

What about the TGI [44] of the same compound?
Its TGI is greater than 100 µM.

And the TGI [45]?
The TGI was greater than 100 µM.

And the TGI [46]?
Its TGI is greater than 100 µM.

And the TGI [47]?
Its TGI is greater than 100 µM.

And the TGI [48]?
Its TGI is greater than 100 µM.

What about the TGI [49] of the same compound?
The TGI was greater than 100 µM.

And the TGI [50]?
Its TGI is greater than 100 µM.

Which TGI [1] does the source give for CC(C)NCC(O)c1cc(OCc2ccccc2)c(OCc2ccccc2)cc1NC(=O)CCC(=O)O (centres undefined) here?
The TGI was 4.97 µM.

And the TGI [2]?
Its TGI is 12.4 µM.

What about the TGI [3] of the same compound?
The TGI was 22.7 µM.

And the TGI [4]?
The TGI was 8.69 µM.

What about the TGI [5] of the same compound?
Its TGI is 2.97 µM.

What about the TGI [6] of the same compound?
The TGI was 3.48 µM.

What about the TGI [7] of the same compound?
Its TGI is 29.7 µM.

And the TGI [8]?
The TGI was 15.7 µM.

And the TGI [9]?
Its TGI is 28.2 µM.

What about the TGI [10] of the same compound?
Its TGI is 13.1 µM.

And the TGI [11]?
The TGI was 26 µM.

What about the TGI [51] of the same compound?
Its TGI is 25.8 µM.

What about the TGI [52] of the same compound?
The TGI was 22.5 µM.

And the TGI [12]?
The TGI was 28.3 µM.

What about the TGI [13] of the same compound?
The TGI was 30.9 µM.

And the TGI [14]?
Its TGI is 21.5 µM.

What about the TGI [15] of the same compound?
The TGI was 30.6 µM.

What about the TGI [16] of the same compound?
Its TGI is 12.9 µM.

What about the TGI [17] of the same compound?
The TGI was 20.9 µM.

What about the TGI [18] of the same compound?
The TGI was 9.01 µM.

And the TGI [19]?
Its TGI is 4.32 µM.

What about the TGI [53] of the same compound?
Its TGI is 25.7 µM.

What about the TGI [54] of the same compound?
The TGI was 30.7 µM.

And the TGI [23]?
The TGI was 6.47 µM.

What about the TGI [55] of the same compound?
Its TGI is 19 µM.

What about the TGI [24] of the same compound?
The TGI was 8.65 µM.

What about the TGI [25] of the same compound?
Its TGI is 14.8 µM.

And the TGI [26]?
Its TGI is 24.5 µM.

And the TGI [56]?
The TGI was 18.6 µM.

What about the TGI [28] of the same compound?
The TGI was 26.5 µM.

What about the TGI [57] of the same compound?
The TGI was 21.3 µM.

What about the TGI [29] of the same compound?
The TGI was 26.4 µM.

What about the TGI [30] of the same compound?
The TGI was 9.51 µM.

What about the TGI [58] of the same compound?
The TGI was 19 µM.

And the TGI [31]?
The TGI was 15.4 µM.

What about the TGI [32] of the same compound?
Its TGI is 3.32 µM.

What about the TGI [33] of the same compound?
Its TGI is 4.01 µM.

What about the TGI [59] of the same compound?
The TGI was 28.7 µM.

And the TGI [34]?
The TGI was 15 µM.

What about the TGI [60] of the same compound?
Its TGI is 5.97 µM.

What about the TGI [35] of the same compound?
The TGI was 24.3 µM.

What about the TGI [36] of the same compound?
The TGI was 26.9 µM.

And the TGI [61]?
The TGI was 23.9 µM.

And the TGI [62]?
Its TGI is 17.4 µM.

What about the TGI [63] of the same compound?
Its TGI is 31.1 µM.

What about the TGI [38] of the same compound?
Its TGI is 17.9 µM.

What about the TGI [39] of the same compound?
Its TGI is 21.3 µM.

What about the TGI [40] of the same compound?
The TGI was 24.2 µM.

And the TGI [41]?
Its TGI is 24.8 µM.

What about the TGI [42] of the same compound?
Its TGI is 33.2 µM.

And the TGI [43]?
Its TGI is 7.51 µM.

What about the TGI [44] of the same compound?
The TGI was 28.6 µM.

And the TGI [46]?
The TGI was 11.7 µM.

What about the TGI [47] of the same compound?
Its TGI is 13 µM.

And the TGI [48]?
Its TGI is 3.71 µM.

And the TGI [64]?
Its TGI is 9.37 µM.

What about the TGI [49] of the same compound?
Its TGI is 18.2 µM.

What about the TGI [50] of the same compound?
Its TGI is 29.2 µM.

What about the TGI [65] of the same compound?
Its TGI is 20.9 µM.
